Measured values from patent EP2127664A1, “Change of the load state of MHC molecules by dipeptides” (priority 2008, dated 2009).
Entries after “also recorded” stand apart in the source; their conditions may differ. Peptide text beside a SMILES is read from it.

Key:
[1] = biological target: T1, soluble HLA-DR1 (DRA*0101, DRB1*0101) (Homo sapiens, UniProt P01903+P01911, A100R/D57E/F55L/F60I/F76Y/I96L/L162R/M171V/P40L/Q125E/R42F/V115G/Y59C); assay: Peptide loading of soluble HLA-DR1 with HA306-318 (ELISA); format: biochemical; conditions: for complex formation between HA306-318 and soluble HLA-DR1 (catalytic activity): titrated amounts of dipeptide, 100nM HLA-DR1, phosphate-buffered saline pH 7.4, 37 °C, 1 h; for catalytic rate enhancement: mean activity, soluble HLA-DR1 (DRB1*0101)
T1 construct: Recombinant soluble HLA-DR1 (DRA*0101, DRB1*0101) (Sloan, V. S (1995) Nature 375, 802-806) was produced in S2 insect cells; made in house; host or cells: S2 insect cells
Text: Antibodies and soluble HLA-DR1. The HLA-DR-specific antibody L243 (ATCC) was purified.

[2] = system: HLA-DR1 restricted mouse T cell hybridoma EvHA/X5; assay: In vitro T cell assay with HA306-318 and peptide-MLE; format: cell-based
Text: (§1) Cells. Stable transfection of L929 fibroblasts (ATCC) were done to generate L101 (DRB1*0101 b86 G) or L101 (β86V) respectively (Höpner et al., (2006), supra). Epstein-Barr virus-transformed B cell 721.221(DRB1*0101) was obtained from ATCC. EvHA/X5 (DRB1*0101-restricted, HA306-318-specific) were derived from HLA-DR1tg mice (Rosloniec, E. F. (1997) J. Exp. Med. 185, 1113-1122) and were generated after fusion of the CD4+ EvHA T cell line with the BW cell (Höpner et al., (2006), supra). CD4+ T cell line PD2 , HLA-DR1 restricted and HA 306-318 specific (Falk K, et al., (2000) Eur. J. Immunol. 30, 3012-3020), ABL 908-922-specific T cell hybridoma SaABL/G2 was generated after fusing a CD4+ T cell line generated in HLA-DR1 […] mice with the BW cell.
(§2) T cell Assays. For pulse wash experiments 5x 10^4 HLA-DR-expressing cells/well were loaded for 4 h with antigenic peptides in the presence and absence of dipeptides as described above. Cells were then washed, and 5x10^4 T cells were added to the culture, which was then incubated for 24 h in Dulbecco's modified Eagle's medium, 5% fetal calf serum in 96-well U-bottom plates. However for permanent assay, HLA-DR expressing cells, T cells and dipeptide stayed together in the reaction for 48 hrs. T cell response was determined in a secondary assay with CTL-L cells (ATCC) as described previously (Falk, K., (2002) J. Biol. Chem. 277, 2709-2715). In experiments with PD-2 cell line, HTR's (as APCs) were pre-irradiated for 520 sec and then used for experiments.

[3] = system: human T cell line PD2; assay: as above; format: cell-based
Text: as §1, §2

[4] = biological target: T2, CLIP/HLA-DR1 complex (Homo sapiens, UniProt P01903+P01911, A100R/D57E/F55L/F60I/F76Y/I96L/L162R/M171V/P40L/Q125E/R42F/V115G/Y59C); assay: Ligand exchange / complex dissociation of CLIP/HLA-DR1 (ELISA); format: biochemical; conditions: 10 mM dipeptide; in the presence of free HA306-318
T2 construct: soluble class II MHC molecules were preloaded with the CLIP peptide; made in house; host or cells: S2 insect cells
Method: Ligand-exchange of soluble HLA-DR molecules- In vitro ligand exchange experiments were carried out by loading 1,5 µM of HLA-DR1 with biotinylated IC106-120, for 20 hrs (Höpner et al., (2006), supra) in presence of 5% ethanol. HLA-DR1:IC complex was diluted to 1:15 and incubated with 200µg/ml HA peptide in presence and absence of 10mM dipeptide.

[5] = biological target: T3, HLA-DR1 (β86G→V) (Homo sapiens, UniProt P01903+P01911, A100R/D57E/F55L/F60I/F76Y/I96L/L162R/M171V/P40L/Q125E/R42F/Y59C); assay: Loading of soluble mutated HLA-DR1 with ABL908-922 (ELISA); format: biochemical; conditions: titrated amounts of dipeptide
T3 construct: Recombinant soluble HLA-DR1 molecules were mutated at position 86; made in house; host or cells: S2 insect cells (printed for the recombinant soluble HLA-DR1; not repeated for the mutants)
Method: Peptide loading/ of Soluble HLA-DR Molecules- For in vitro loading experiments 100nM HLA-DR1 was incubated with 40 µg/ml (phosphate-buffered saline, pH 7.4, 37 °C, 1 h).

[6] = biological target: T4, fibroblast cells transfected with mutated HLA-DR1 (β86G→V) (Homo sapiens, UniProt P01903+P01911, A100R/D57E/F55L/F60I/F76Y/I96L/L162R/M171V/P40L/Q125E/R42F/Y59C); assay: Peptide loading of cell surface MHC molecules with ABL908-922 (FACS); format: cell-based; conditions: fibroblasts expressing HLA-DR1 (β86G→V)
T4 construct: transfected with full length versions of wt HLA-DR1 (β86G) and mutated HLA-DR1 (β86G→V); expressed in transfected cells
Text: as §1
Peptide Loading of Cell Surface MHC Molecules. For loading experiments biotinylated antigenic peptides were incubated with 10 x 10^4 HLA-DR expressing cells/well in presence and absence of dipeptides at 37 °C in Dulbecco's modified Eagle's medium, 5% fetal calf serum in a 96 well V bottom plate for 4 hrs. FACS analysis was done as described previously (Höpner et al., (2006), supra).

[7] = system: CD4+ T cell hybridoma specific for the ABL epitope (SaABL/G5); assay: T cell assay, ABL908-922-loaded fibroblasts expressing HLA-DR1 (β86G→V); format: cell-based, mice; conditions: fibroblasts with mutated HLA-DR1 (β86G→V) loaded in the presence of dipeptides
Text: as §1
as §2, with “In experiments with PD-2 cell line, HTR's (as APCs) were pre-irradiated for 520 sec and then used for experiments.” left out

[8] = in the presence of Ac-FR-NH2 (5 mM per Fig. 5 legend)
[9] = in the absence of the dipeptide catalyst

Compound: C[C@H](N)C(=O)N[C@@H](CCCNC(=N)N)C(=O)O [AR] (H-Ala-Arg-OH)
- complex formation between HA306-318 and soluble HLA-DR1 (catalytic activity) [1]: No effect

Compound: CC(=O)N[C@@H](C)C(=O)N[C@@H](CCCNC(=N)N)C(N)=O [Ac-AR-NH2] (Ac-Ala-Arg-NH2)
- complex formation between HA306-318 and soluble HLA-DR1 (catalytic activity) [1]: completely inactive; also recorded: abrogated the effect

Compound: CC(=O)N[C@@H](CCC(=O)O)C(=O)N[C@@H](CCCNC(=N)N)C(N)=O [Ac-ER-NH2] (Ac-Glu-Arg-NH2)
- complex formation between HA306-318 and soluble HLA-DR1 (catalytic activity) [1]: No enhancement; also recorded: abrogated the effect

Compound: CC(=O)N[C@@H](Cc1ccccc1)C(=O)N[C@@H](CCCNC(=N)N)C(N)=O [Ac-FR-NH2] (Ac-Phe-Arg-NH2)
- on-rate is amplified by a factor of ([1]; in the presence of 1 mM): 7.08
- catalytic rate enhancement [1]: 6.08 mM⁻¹
- half-maximal response (concentration of HA306-318) [2, 8]: 0.65 ng/mL
- half-maximal response (concentration of HA306-318) [3, 8]: 0.23 ng/mL

Compound: CC(=O)N[C@@H](CC(C)C)C(=O)N[C@@H](CCCNC(=N)N)C(N)=O [Ac-LR-NH2]
- complex dissociation of CLIP/HLA-DR1 [4]: weaker dissociation
- enhancement of ABL908-922 loading [5]: best enhancement
- loading of cells with ABL908-922 determined by FACS [6]: most effective
- ABL908-922-specific T cell stimulation [7]: most efficient ABL908-922-specific stimulation
- effect on the HA306-318-specific T cell response ([2]; compared with Ac-FR-NH2): weaker effects
- effect on the HA306-318-specific T cell response ([3]; compared with Ac-FR-NH2): weaker effects

Compound: CC(=O)N[C@@H](Cc1c[nH]c2ccccc12)C(=O)N[C@@H](CCCNC(=N)N)C(N)=O [Ac-WR-NH2] (Ac-Trp-Arg-NH2)
- catalytic rate enhancement [1]: 3.54 mM⁻¹

Compound: CC(=O)N[C@@H](Cc1ccc(O)cc1)C(=O)N[C@@H](CCCNC(=N)N)C(N)=O [Ac-YR-NH2]
- increase in the catalytic activity compared to the unmodified YR peptide ([1]; complex formation between HA306-318 and HLA-DR1): more than 10 fold
- catalytic rate enhancement [1]: 3.39 mM⁻¹
- complex dissociation of CLIP/HLA-DR1 [4]: weaker dissociation

Compound: CC(=O)N[C@@H](Cc1ccc(O)cc1)C(=O)N[C@@H](CCCNC(=N)N)C(=O)O [Ac-YR]
- complex formation between HA306-318 and soluble HLA-DR1 (catalytic activity) [1]: partial effect

Compound: N=C(N)NCCC[C@H](NC(=O)[C@@H](N)Cc1ccc(O)cc1)C(N)=O [YR-NH2]
- complex formation between HA306-318 and soluble HLA-DR1 (catalytic activity) [1]: partial effect

Compound: N=C(N)NCCC[C@H](NC(=O)[C@@H](N)Cc1ccc(O)cc1)C(=O)O [YR]
- complex formation between HA306-318 and soluble HLA-DR1 (catalytic activity) [1]: accelerated the MHC-loading with the HA306-318 peptide in a dose-dependent way

Compound: HA306-318: high-affinity peptide ligand / antigen HA306-318 (PKYVKQNTLKLAT) [reference compound]
- half-maximal response (concentration of HA306-318) [2, 9]: 31 ng/mL
- half-maximal response (concentration of HA306-318) [3, 9]: 14 ng/mL
